Each compound was assayed against T1, Glutathione S-transferase E2 (Anopheles gambiae, UniProt Q9GPL8) (assay: GST Inhibition Assay). Settings: pH 6.5; 30 °C.
T1 sequence (Q9GPL8 whole entry): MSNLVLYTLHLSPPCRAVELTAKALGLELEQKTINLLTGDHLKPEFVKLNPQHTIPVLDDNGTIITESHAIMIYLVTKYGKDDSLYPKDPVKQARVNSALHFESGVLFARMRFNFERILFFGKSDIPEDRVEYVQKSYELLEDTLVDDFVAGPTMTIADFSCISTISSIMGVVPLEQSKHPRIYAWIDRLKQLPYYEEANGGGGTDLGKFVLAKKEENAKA
Text: A range of natural product were screened for inhibition of AgGSTE2. GST activity was monitored by measuring absorbance at 340 nm with time, using a SpectraMax 340 microplate spectrophotometer equipped with a kinetics mode from Molecular Devices, Sunnyvale, California, USA.

Compound	IC50 [µM]
C=C(CC)C(=O)c1ccc(OCC(=O)O)c(Cl)c1Cl [[2,3-dichloro-4-(2-methylidenebutanoyl)phenoxy]acetic acid]	1.4
COc1cc(O)c(-c2c(C)cc(O)c3c2Cc2cccc(O)c2C3=O)c(O)c1C(C)=O [Name not given]	3.5
CC(C)=CCCC1(C)C(CC=C(C)C)CC2(CC=C(C)C)C(=O)C(C(=O)c3ccc(O)c(O)c3)C(=O)C1(CC=C(C)C)C2=O (stereo not given) [GGI]	4.8
C=Cc1c(OC=O)cc(O)c2c1OC(c1ccc(O)c(O)c1)C(O)C2 (stereo not given) [TRAL-1]	1.5
O=Cc1occ2c(O)c3c(O)ccc(O)c3c(O)c12 [MR-13/4]	4.3
